# Source: US20200352184A1, “Prevention of Postharvest Physiological Deterioration using Sulfur-Donating Compounds” (Apeel Technology, Inc., priority 2017, published 2020)
# Assay: Saturation concentration in water
# Type: physicochemical
# Conditions: standard temperature and pressure stated for sodium thiosulfate
# Protocol: For example, at standard temperature and pressure, water can become saturated with sodium thiosulfate at a concentration of about 700 mg/mL. Accordingly, in some embodiments, the concentration of a solution (e.g., an aqueous solution) containing sodium thiosulfate can be about 700 mg/mL. […] Accordingly, in some embodiments, the concentration of the sodium thiosulfate is between about 400 and about 700 mg/mL (e.g., between about 500 and about 700 mg/mL). In some embodiments, the concentration of the sodium thiosulfate salt is about 100, about 200, about 300, about 400, about 500, about 600, or about 700 mg/mL. In some embodiments, the concentration can be lower than 700 mg/mL.
# In some embodiments, a metabisulfite solution (e.g., sodium metabisulfite) solution in water can become saturated at about 300 mg/mL. Accordingly, in some embodiments solutions of sodium metabisulfite are used at a concentration of about 300 mg/mL, about 200 mg/mL, or about 100 mg/mL.
row,Compound,concentration at which water becomes saturated
1,O=S([O-])S(=O)(=O)[O-].[Na+].[Na+] [sodium metabisulfite],about 300 mg/mL
2,"O.O.O.O.O.O=S([O-])([O-])=S.[Na+].[Na+] [sodium thiosulfate, sodium thiosulfate pentahydrate]",about 700 mg/mL
